Source: patent US6803382B2, “Angiogenesis inhibitors and pharmaceutical and cosmetic use thereof” (Galderma Research & Development, S.N.C., priority 2001, dated 2004)

Assays:
[1] = tested on: Endothelial Cells Isolated from the Vein of Umbilical Cords; test: Inhibition of endothelial cell proliferation by DNA synthesis reinitiation (b-Fgf, tritiated thymidine); type: cell-based; details: b-Fgf-stimulated tritiated thymidine incorporation, 24 h at 37° C., serum free medium, IC50 determined graphically
Procedure: The anti-angiogenic activity of the compounds according to the invention may also be measured by means of their capacity to inhibit the proliferation of endothelial cells. This activity is determined in Example 13 of the present patent application.
b) Measurement of the Inhibition of the Proliferation in Endothelial Cells Isolated from the Vein of Umbilical Cords (Prepared at the Laboratory) by DNA Synthesis Reinitiation
The cells are seeded in complemented SFM medium (Gibco). When the cells reach the confluence, the growth is stopped by 2 washes in serum free medium and handing-over in serum free medium for 24 h. After trypsination, they are seeded in 48 wells plates: 50.000 cells per well in 500 μl.
The reinitiation of DNA synthesis is performed 6 hours after, in presence of 50 μg/ml b-Fgf by well with increasing amounts of inhibitor to be tested in the serum free medium and containing the tritiated thymidine (b-Fgf is prepared at the laboratory).
The cells are incubated 24 h at 37° C. and the radioactivity is measured with a Wallac counter. Each test is performed in duplicate and the result is the average of the counted number of cpms. The curve showing measured radioactivity function to increasing amount of inhibitors allows to determine graphically the value of IC50.

Human MetAP-2 = target: T1, Human MetAP-2 (Homo sapiens, UniProt P50579); test: Inhibition of human MetAP-2 (recombinant enzyme, Met-Ala-Ser substrate); type: biochemical; details: recombinant MetAP-2, substrate Met-Ala-Ser 1 mM, 37° C., Hepes pH 7.4, 0.5 mM CoCl2
T1 construct: made in house
Procedure: By way of example, the biological activity of the compounds is evaluated by measuring their inhibitory activity on methionine aminopeptidase MetAP-2 (Li, X., Chang, Y-H. Biochem. Biophys. Res. Comm. 1996, 227, 152).
The biological activity is characterized in this system by determining the concentration of compound required to inhibit 50% of the enzymatic activity (IC50). The test protocol used is described in Example 13 of the present patent application.
a) Measurement of the Inhibition of Human MetAP-2
Recombinant MetAP-2 is obtained and purified according to the method described by Li and Chang (Li, X.; Chang, Y-H. Biochem. Biophys. Res. Comm. 1996, 227, 152).
The tests are carried out in buffer A (Hepes buffer, 10 mM, pH 7.4, 0.5 mM CoCl2 containing 10% glycerol) using the peptide Met-Ala-Ser as substrate (Km=0.7 mM).
a. The enzymatic activity is measured as follows: the substrate solution is added to a suitable amount of enzyme such that the final concentration is 1 mM, and the mixture is incubated at 37° C. for 10-30 minutes. The reaction is quenched by adding 100 mM EDTA solution or by heating in a boiling water bath for two minutes.
b. The N-terminal methionine released is quantified by measuring the absorbance at 450 nm (A450) by incubating for 30-60 minutes at 37° C. with the following coloured reagent: buffer B (Hepes buffer, 10 mM, pH 7.4) (Ben-Bassat A.; Bauer K.: Chang S. Y. et al., J. Bacteriol. 1987, 169, 751-757), containing 70 μg/mL of amino acid oxidase, 10 μg/mL of horseradish peroxidase and 1 mM of o-dianisidine. The activities are expressed as mmol of methionine produced, using the conversion factor of 1 mmol of methionine/mL=8.6A450
Determination of the IC50
The IC50 values are determined by incubating the enzyme and its substrate (using the experimental conditions described above) with increasing concentrations of inhibitor.
The control is 5-methoxy-4-[2-methyl-3-(3-methylbut-2-enyl)oxiranyl]-1-oxaspiro[2.5]octan-6-yl 4-methoxycinnamate described in the publication by Han et al., Bioorganic & Medicinal Chemistry Letters, 2000, 10, 39-43.

T1 sequence (P50579 whole entry): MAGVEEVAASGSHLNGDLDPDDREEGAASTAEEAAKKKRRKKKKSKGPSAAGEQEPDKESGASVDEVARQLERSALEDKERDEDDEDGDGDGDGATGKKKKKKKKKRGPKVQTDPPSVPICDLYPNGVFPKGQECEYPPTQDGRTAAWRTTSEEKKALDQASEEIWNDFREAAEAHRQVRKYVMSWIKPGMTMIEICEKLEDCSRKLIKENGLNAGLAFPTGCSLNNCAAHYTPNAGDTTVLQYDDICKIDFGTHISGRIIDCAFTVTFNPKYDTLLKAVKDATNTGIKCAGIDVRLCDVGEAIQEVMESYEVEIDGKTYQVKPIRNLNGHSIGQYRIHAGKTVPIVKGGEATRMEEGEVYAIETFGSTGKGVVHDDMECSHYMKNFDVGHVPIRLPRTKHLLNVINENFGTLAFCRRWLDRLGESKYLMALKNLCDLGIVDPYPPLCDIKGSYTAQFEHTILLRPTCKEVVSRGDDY

IC50 (Human MetAP-2) [µM] | SMILES | IC50 [1] [µM] | IC50 ([1]; Endothelial cell) [µM]
0.035 | COc1ccc(C=CC(=O)OC2CCC3(CO3)C(C3(C)OC3CC=C(C)C)C2OC)cc1 (centres unmarked) [Control, 5-methoxy-4-[2-methyl-3-(3-methylbut-2-enyl)oxiranyl]-1-oxaspiro[2.5]octan-6-yl 4-methoxycinnamate] | 0.01 | –
0.015 | COc1ccc(/C=C/C(=O)O[C@@H]2CC[C@]3(CO3)[C@@H](/C(C)=C/CCC(C)C)[C@@H]2OC)cc1 [Example 2] | – | 0.001
0.01 | CO[C@@H]1[C@H](OC(=O)/C=C/C=C/C=C/C=C/C(=O)O)CC[C@]2(CO2)[C@H]1[C@@]1(C)O[C@@H]1CC=C(C)C [Fumagillin] | – | –
